Values of other authors, collected in patent US20160335412A1, “SYSTEMS AND METHODS FOR PREDICTING AND ADJUSTING THE DOSAGE OF MEDICINES IN INDIVIDUAL PATIENTS” (priority 2013, published 2016).

| SMILES | 'therapeutic range' of plasma drug concentrations (has been established, treatment of schizophrenia) | 'therapeutic range' of plasma concentrations (documented in the literature, lower limit = no response in most patients, upper limit = toxicity in most) |
| --- | --- | --- |
| Cc1cc2c(s1)Nc1ccccc1N=C2N1CCN(C)CC1 [olanzapine] | 20 to 80 ng/mL |  |
| Cn1c(=O)c2[nH]cnc2n(C)c1=O [theophylline] |  | 5-10 micrograms per ml plasma |
